“Also recorded” adds a separate entry of the source. Like-named read-outs stand apart in the source and are kept apart here. Bridges are numbered along the chain shown (N, C = ends). Where no end group is shown, it is not given here. [ ]: non-standard residue; d: D form. R8 = C=CCCCCCC[C@@](C)(N)C(=O)O; S5 = C=CCCC[C@](C)(N)C(=O)O
Assays:
rgRSV [1] = experiment: rgRSV in vitro infectivity assay in Vero cells; assay type: cell-based, Respiratory Syncytial Virus (RSV); details: for RSV infection, peptide administered before viral exposure (prophylactically): SAHF for 1 hour followed by rgRSV 0.1 MOI; for RSV infection, peptide administered after viral exposure: rgRSV 0.1 MOI for 1 hour followed by SAHF; for inhibition of RSV infection (anti-RSV activity): rgRSV 0.1 MOI, 24 hour post-infection
Protocol: To test the capacity of SAHF peptides to block RSV infection of culture cells, an in vitro infectivity assay was performed in the presence and absence of SAHF peptides. Briefly, Vero cells plated in 48-well format (60,000 cells/well) were exposed to rgRSV only (0.1 MOI) and SAHF peptides, followed by imaging 24 hour post-infection to quantitate infectivity by confocal microscopy and FACS analysis Annexin V staining was also performed on harvested Vero cells to distinguish live from dead cells when calculating percent GFP positive cells.
(§1) Vero cells plated in 48-well format (60,000 cells/well) were exposed to (a) rgRSV only (0.1 MOI); (b) rgRSV for 1 hour followed by treatment with SAHF; and (c) SAHF for 1 hour followed by rgRSV infection, and then imaged 24 hour post-infection to quantitate infectivity by confocal microscopy and FACS analysis.

rgRSV [2] = experiment: Intranasal peptide followed by transnasal rgRSV infection in mice; assay type: in vivo; details: 250 μM, 25 μL intranasally four hours before rgRSV, 20 hours post-infection
Protocol: To examine the capacity of SAH-RSV peptides to inhibit RSV infection in vivo, vehicle or SAH-RSV peptide (250 μM, 25 μL) was administered to anesthetized mice intranasally followed by transnasal infection with rgRSV (5×10^5 PFU, 36 μL) four hours later. Mice were sacrificed 20 hours post-infection, and the nasal epithelium cryosectioned, stained with DAPI, and imaged using a fluorescent microscope.

RSV 5-helix bundle = experiment: Competition fluorescence polarization assay (FPA) against FITC-RSV HR2 (488-522); assay type: binding, Respiratory Syncytial Virus (RSV)
Protocol: To assess binding activity toward the RSV fusogenic bundle, competition FPA was performed using recombinant five-helix bundle protein, fluorescent HR2 peptide (488-522), and serial dilutions of SAHF peptides shown in Table 2. More specifically, a 5-helix bundle protein was designed containing five of the six helices that comprise the core of the RSV-F trimer of hairpins, connected by short peptide linkers in accordance with the design of the gp41 5-helix bundle (Root et al., Science, 291:884-888, 2001). Because the 5-helix bundle lacks the third HR2 helix but is otherwise soluble, stable, and helical, incorporation of the sixth HR2 peptide in the form of FITC-RSV (488-522) yielded a stable complex, which can be competed with acetylated SAH-RSV peptides to gauge relative binding affinity.
FPA assays were used to measure and compare the relative binding activities of distinct SAHF constructs for the RSV fusion bundle. First, FITC-RSV HR2 peptide (488-522) is mixed with a serial dilution of recombinant 5-helix bundle protein to generate a binding isotherm. A fixed concentration of FITC-peptide and protein at ˜EC75 was then incubated with a serial dilution of acetylated SAHF peptide to generate competition curves for comparative analysis. Fluorescence polarization (mP units) was measured on a SpectraMax fluorimeter and IC50 values calculated by nonlinear regression analysis of competition curves using Prism software (Graphpad).

rgRSV [3] = experiment: Virus-induced syncytia formation in Vero cells; assay type: cell-based, Respiratory Syncytial Virus (RSV); details: administered before or after viral exposure
Protocol: as §1

RgRSV [4] = experiment: Intranasal RgRSV infection of BALB/c mice after intranasal peptide; assay type: in vivo; details: RgRSV-infected, 125 μM intranasally
Protocol: One hour post treatment, three groups of mice were inoculated with a single dose of RgRSV at 1×10^6 pfu/mouse, with the fourth group receiving a mock inoculation. Mice were sacrificed at 24 hours post infection and the noses harvested, sectioned, stained with DAPI and imaged with an Olympus fluorescent microscope (FIG. 16A; original magnification 20×). Image J analysis was performed on the acquired images (FIG. 16B) and average GFP positive (green) and DAPI positive (blue) cells were calculated from eight images (4 sections) per mouse (bars represent percent GFP positive of total DAPI-positive cells present in the images and error bars represent mean+/−SEM. *, p<0.001). FIG. 16C depicts the results of hematoxylin and eosin staining of the nose sections (original magnification 20×, insets 100×) In FIG. 16C black arrows highlight thickened mucosa.

RSV-A2 [5] = experiment: RSV-A2 lung infection of BALB/c mice after prophylactic intranasal peptide; assay type: in vivo; details: 125 μM intranasally, dosing and inoculation repeated at 16 hours, 4 days after second infection
Protocol: One hour post treatment, three groups of mice were inoculated with a single dose of RSV-A2 at 1×10^6 pfu/mouse. Peptide dosing and viral inoculation was repeated 16 hours post-infection. The fourth group was treated with volume-equivalent vehicle and mock-infected. Two mice from each group were sacrificed 4 days after the second infection and left lung lobes harvested after 1% paraformaldehyde perfusion, followed by cryopreservation in OCT. Sections (5 μm) were treated with 1:1000 dilution of rabbit anti-RSV polyclonal antibody (Millipore) overnight followed by anti-rabbit antibody conjugated to Alexa Fluor 555 (1:400) (red) (Molecular Probes) for 1 h. Sections were washed and mounted with medium containing DAPI (blue) and viewed with an Olympus fluorescent microscope (FIG. 17A; original magnification 20×). Image J analysis was performed on the acquired images and the percentage RSV-positive cells (red) of total DAPI-positive cells (blue) determined from 8 images (4 sections) per mice (FIG. 17B; .error bars represent mean+/−SEM; *, p<0.0001). Four days after the second infection, bronchoalveolar lavage (BAL) was performed on one mouse from each group and BAL supernatant used to determine the viral titers by plaque assay on Hep-2 cells (FIG. 17C; error bars represent mean+/−SEM of plaques counted per in vivo specimen; *, p<0.05). Also at four days after the second infection, cranial and caudal lobes of the right lung from two mice per group were snap frozen on dry ice. A lung homogenate was generated from the cranial lobe and supernatant subjected to viral titer determination (log 10 pfu/ml) (FIG. 17D; error bars represent mean+/−SEM; *, p<0.05). Total RNA was isolated from the caudal lobe of the right lung and quatitative RT-PCR was performed for the RSV-N gene. The results of this analysis are presented in FIG. 17E in which the bar graphs represent the RSV-N gene expression normalized to the mock-infected tissue.

RSV-A2 [6] = experiment: RSV-A2 infection of A549 cells at 1 MOI, Hep-2 plaque assay titers; assay type: cell-based, Respiratory Syncytial Virus (RSV); details: 5 μM peptide
Protocol: In this study A549 cells were plated in a 24 well plate at 30,000 cells/well. The following day, the cells were treated with 5 μM of the indicated stapled SAHF peptide or volume-equivalent DMSO vehicle, followed by RSV-A2 infection at 1 MOI. The cells were infected for 2 h, and the infection medium replaced with 400 μl of DMEM containing 5% FBS and 5 μM of the indicated stapled SAHF peptide. Cells were harvested along with the supernantant 24 h post infection, vortexed for 10 sec, and the supernatant collected, leaving the cell pellet behind. Hep-2 cells were plated on a 24 well plate at 60,000 cells/well the day before use. Plaque assay was performed on Hep-2 cells using the collected supernatant and titers determined at 5 days post infection of Hep-2 cells. The results of this analysis are shown in FIG. 14 in which titers are shown as log 10 pfu/ml and the values represent the mean+/−SEM for two independent experiments (***p<0.001; ****p<0.0001).

Substance | inhibition of RSV infection (anti-RSV activity) (rgRSV [1]) | 5-helix bundle binding activity (RSV 5-helix bundle) | further results
FDASISQVNEKINQSLAFIRK8DELLHNXNAGKST [SAHF-L, negative control] | nor suppressed RSV infection in vitro | no binding activity; also recorded: did not bind | RSV infection, peptide administered before viral exposure (prophylactically) (rgRSV [1]): little to no effect; RSV infection, peptide administered after viral exposure (rgRSV [1]): little to no effect; inhibition of RSV infection (anti-RSV activity) (rgRSV [1]; listed as SAH-RSV(L)): no activity; RSV infection of nasal mucosa (GFP-positive cells) (rgRSV [2]): no in vivo activity; 5-helix bundle binding activity (RSV 5-helix bundle; listed as SAH-RSV(L)): poor binding activity; also recorded: incapable of binding the 5-helix bundle; virus-induced syncytia formation (rgRSV [3]): little to no effect
FDAXISQXNEKINQSLAFIRKSDELLHNVNAGKST (Ac-FDA[S5]ISQ[S5]NEKINQSLAFIRKSDELLHNVNAGKST; staple 4-8) [SAHF-C] | suppressed RSV infection in vitro | bound the 5-helix bundle | RSV infection of nasal mucosa (GFP-positive cells) (rgRSV [2]): markedly suppressed RSV infection; also recorded: blocks trans-nasal RSV infection in mice
FD8SISQVNXKINQSLAFIRKSDELLHNVNAGKST (FDXSISQVNXKINQSLAFIRKSDELLHNVNAGKST; hydrocarbon staple; MOD_RES (3)..(3) Any amino acid; (3)..(10) Crosslink between residues; MOD_RES (10)..(10) Any amino acid) [SAHF-H] | superior | superior 5-helix bundle binding | RSV infection, peptide administered before viral exposure (prophylactically) (rgRSV [1]): inhibited RSV infection; also recorded: blocks RSV infection of Vero cells; RSV infection, peptide administered after viral exposure (rgRSV [1]): inhibited RSV infection; also recorded: blocks RSV infection of Vero cells; virus-induced syncytia formation (rgRSV [3]): blocked syncytial formation; also recorded: inhibits virus-induced syncytia formation
F8ASISQVXEKINQSLAFIRKSDELLHNVNAGKST (Ac-F[R8]ASISQV[S5]EKINQSLAFIRKSDELLHNVNAGKST; staple 2-9) [SAHF-G] | superior | superior 5-helix bundle binding | 
FD8SISQVNXKINQSLAFIRK8DELLHNXNAGKST (FDXSISQVNXKINQSLAFIRKXDELLHNXNAGKST; two hydrocarbon staples; MOD_RES (3)..(3) Any amino acid; (3)..(10) Crosslink between residues; MOD_RES (10)..(10) Any amino acid; MOD_RES (22)..(22) Any amino acid; (22)..(29) Crosslink between residues; MOD_RES (29)..(29) Any amino acid) [SAHF-H, L, control] |  |  | inflammation in nose sections (hematoxylin and eosin staining) (RgRSV [4]): Inflammation is noted; RSV-A2 lung infection, by each measure (RSV-positive cells, BAL and lung homogenate titers, RSV-N gene) (RSV-A2 [5]): no effect
FDASISQVNEKINQSLAFI8KSDELLXNVNAGKST (Ac-FDASISQVNEKINQSLAFI[R8]KSDELL[S5]NVNAGKST; staple 20-27) [SAHF-J] | superior | superior 5-helix bundle binding | 
FDA8SQVVNEXINQSLAFIRKSDELLHNVNAGKST [SAHF-I] | superior | superior 5-helix bundle binding | 
FDA8ISQVNEXINQSLAFI8KSDELLXNVNAGKST (Ac-FDA[R8]ISQVNE[S5]INQSLAFI[R8]KSDELL[S5]NVNAGKST; staple 4-11, 20-27) [SAHF-I, J] |  |  | RSV-A2 infection (viral titers) (RSV-A2 [6]): inhibit RSV-A2 infection of A549 cells
FDASISQVNEKINQSLAFIR8SDELLHXVNAGKST (Ac-FDASISQVNEKINQSLAFIR[R8]SDELLH[S5]VNAGKST; staple 21-28) [SAHF-K] | superior | superior 5-helix bundle binding | 
